# Experimental data from EP2241555A1, “New RAC1 inhibitors as potential pharmacological agents for heart failure treatment” (UNIVERSITA' DEGLI STUDI DI MILANO, priority 2009, dated 2010).
# Where two headings read alike, the source gives them in different places.
# What was measured:
# Rac1 = molecular target: T1, Rac1 (Homo sapiens, UniProt P63000); assay: G-LISA assay of intracellular Rac1-GTP in PDGF-BB stimulated human smooth muscle cells; assay type: cell-based; settings: for remaining activity at 50 µM / remaining activity at 100 µM: read-out: Rac1 inhibitory activity (% vs control); for remaining activity at 100 µM: Concentration 100 µm; for inhibitory action on Rac1 activity: G-LISA, 50 µM, statement in words
# T1 construct: endogenous in cells; host or cells: human cultured smooth muscle cells, stimulated with PDGF-BB
# Text: The intracellular amount of Rac1-GTP has been determined using the GLISA™ assay (Cytoskeleton, Inc). The GLISA™ assay uses a 96-well plate coated with RBD domain of Rac1-family effector protein PAK1. […] A significant inhibition on Rac1 activity should decrease the intracellular levels of Rac1-GTP and therefore reduce the percentage of Rac1-GTP detected compared to control untreated cells.
# HepG2 cells = assay: Resazurine cytotoxicity assay (metabolic activity), HepG2; assay type: cell-based, human; settings: for toxic classification / MVC / EC50: HepG2, 24 h; for toxic classification: classification in words in the text; for MVC: maximal viability concentration; for Cytotoxicity-Classification: HepG2, 24 h exposure; for EC50: Homo sapiens
# Experimental: (§1) For a pre-screening of the compounds they were first tested in human hepatocellular carcinoma cells (HepG2 cells)for 24 h and to gain further information about the cytotoxic potential more specific target tissues like the mouse cardiomyocytes HL-1 and primary rat cardiomyocytes were used additionally. […] The toxicity classification has been determined by using drugs currently utilized in clinic with known toxicity profile
# HL-1 = assay: Resazurine cytotoxicity assay (metabolic activity), HL-1; assay type: cell-based, mouse; settings: for MVC / EC50: HL-1, 24 h; for MVC: maximal viability concentration; for Cytotoxicity-Classification: HL-1, 24 h exposure; for EC50: Mus musculus, metabolic activity
# Experimental: as §1
# [1] = tested on: primary rat cardiomyocytes; assay: Resazurine cytotoxicity assay (metabolic activity), primary rat cardiomyocytes; assay type: cell-based; settings: for MVC / EC50: 24 h; for MVC: maximal viability concentration; for Cytotoxicity-Classification: 24 h exposure; for EC50: Cardiomyocyte, metabolic activity
# Experimental: as §1
# [2] = PAMPA (Parallel Artificial Membrane Permeability Assay); assay type: in vitro ADME; settings: start concentration 250 µM, diffusion period 16 h
# Experimental: (§2) The permeation characteristics of the Rac1 inhibitors were determined first in the artificial system PAMPA (Parallel Artificial Membrane Permeability Assay) which uses a membrane covered with a lipid to simulate the lipid bilayer of various cell types, including intestinal epithelium and second in vitro across Caco2, a human colon carcinoma cell line seeded as monolayers onto polycarbonate membranes. The PAMPA is able to predict the ability of a compound to permeate by a passive transcellular transport through an artificial lipid layer assembled on a membrane and also allows a classification into low (flux <20%), medium (20%≤ flux ≤70%), and high (flux >70%) absorbing substances. The Caco2 assay provides a well-established in vitro model to predict the human intestinal absorption.
# The flux rate of the compounds of the invention and the reference NSC23766 was measured from a donor compartment to an acceptor compartment across the lipid layer at a start concentration of 250 µM over a diffusion period of 16 h.
# [3] = Caco2 monolayer permeation; assay type: in vitro ADME, human; settings: human, Caco-2, Caco2 monolayers, start concentration 50 µM
# Experimental: as §2
# Caco2 = Caco2 monolayer permeation; assay type: in vitro ADME, human; settings: Caco2 monolayers, 90 min, start concentration 50 µM
# Experimental: as §2
# HL-1 cells = assay: Apoptosis of ischemic HL-1 cardiomyocytes (TUNEL assay, flow cytometer); assay type: cell-based, mouse; settings: 100 µM; 8 h ischemia (glucose deficient medium + hydrogen peroxide); 8h Ischemia alone 701.6, 8h Control 100
# Experimental: To establish a cardiomyocytes based apoptosis assay, which mimics the post-ischemic damage observed after myocardial infarction, we have utilized a cardiac muscle cell line, HL-1 cells, derived from the AT-1 mouse atrial cardiomyocyte tumor lineage. The HL-1 cells were incubated in glucose deficient medium in the presence of hydrogen peroxide and either in presence or absence of compounds of the invention Apoptosis rate of ischemic HL-1 cells was normalised to the apoptosis rate of the 8h control cells under non-ischemic conditions, thus incubated with normal concentration of glucose in the absence of hydrogen peroxide. Both non-ischemic and ischemic HL-1 cultures were harvested after 8 hours. […] The apoptotic rates were then evaluated by TUNEL assay, a method for detecting DNA strand breaks in apoptotic cells by flow cytometer The solvent of the compounds, i.e DMSO, has no influence on the apoptosis rate. […] Effect of newly synthesized compounds with Rac1 inhibitory activity on apoptosis rate in HL-1 cells normalized to control (TUNEL-assay) The data are representative of two experiments.
# [4] = tissue homogenate, 60 min, 10 µM
# Experimental: The basic incubation mixture with total volume of 500 µl consisted of the following components. 100 µl liver homogenate, compound in DMSO (dimethyl sulfoxide) and 1 mM NADPH (reduced nicotinamide adenine dinucleotide phosphate), 1 mM UDPGA (uridine 5'-diphosphoglucuronic acid), 1 mM PAPS (3'-phosphoadenosine-5'-phosphosulfate) and 1 mM GSH (glutathione). The substrate concentration used was 10 µM. Two parallel incubations, one with cofactors and one without, were made. Final DMSO concentration in the incubation was 1 µM. […] Reaction was started by addition of a cofactor mixture and stopped by adding 250 µl of ice-cold acetonitrile.
# [5] = Concentration 50 µm, 4 hours incubation, then PDGF-BB 10 ng/ml, Rac1-GTP detected relative to control (100), lower = more inhibition
# [6] = 4 hours incubation, then PDGF-BB 10 ng/ml, Rac1-GTP detected relative to control (100), lower = more inhibition
# [7] = metabolic activity, read-out: EC50
compound,measurement,setting,value
"CCOC(=O)CNc1cc(C)nc(NC(C)CCCN(CC)CC)n1 (stereo not drawn) [CWB012/01025, [2-(4-Diethylamino-1-methyl-butylamino)-6-methyl-pyrimidin-4-ylamino]-acetic acid ethyl ester]",remaining activity at 50 µM,Rac1; [5],92.9%
"CCN(CC)CCCC(C)Nc1nc(C)cc(Nc2ccc3nc(C)cc(O)c3c2)n1 (stereo not drawn) [CWB005/02039, 6-[2-(4-Diethylamino-1-methyl-butylamino)-6-methyl-pyrimidin-4-ylamino]-2-methyl-quinolin-4-ol]",remaining activity at 50 µM,Rac1; [5],106%
"CCN(CC)CCCNc1nc(C)cc(Oc2ccc3nc(C)ccc3c2)n1 [CWB011/01023, N,N-Diethyl-N'-[4-methyl-6-(2-methyl-quinolin-6-yloxy)-pyrimidin-2-yl]-propane-1,3-diamine]",remaining activity at 50 µM,Rac1; [5],94.8%
"CCN(CC)CCCC(C)Nc1nccc(Nc2ccc3cc[nH]c3c2)n1 (stereo not drawn) [CWB023/02053, N2-(4-Diethylamino-1-methyl-butyl)-N4-(1H-indol-6-yl)-pyrimidine-2,4-diamine]",remaining activity at 100 µM,Rac1; [6],98%
"CCN(CC)CCCC(C)Nc1cc(C)nc(N2CCOCC2)n1 (stereo not drawn) [CWB016/02046, N1,N1-Diethyl-N4-(6-methyl-2-morpholin-4-yl-pyrimidin-4-yl)-pentane-1,4-diamine]",remaining activity at 50 µM,Rac1; [5],93.2%
"Cc1cc(Nc2ccc3nc(C)cc(O)c3c2)nc(NCCc2c[nH]c3ccccc23)n1 [CWB006/02035, 6-{2-[2-(1H-Indol-3-yl)-ethylamino]-6-methyl-pyrimidin-4-ylamino}-2-methyl-quinolin-4-ol]",remaining activity at 50 µM,Rac1; [5],91.5%
"CCN(CC)CCCC(C)Nc1nc(C)cc(Nc2ccc3ncccc3c2)n1 (stereo not drawn) [CWB003/01020, N2-(4-Diethylamino-1-methyl-butyl)-6-methyl-N4-quinolin-6-yl-pyrimidine-2,4-diamine]",remaining activity at 50 µM,Rac1; [5],93.8%
"COC(=O)C(CC(C)C)Nc1cc(C)nc(Nc2ccc3ncccc3c2)n1 (stereo not drawn) [CWB018/01034, 4-Methyl-2-[6-methyl-2-(quinolin-6-ylamino)-pyrimidin-4-ylamino]-pentanoic acid methyl ester]",remaining activity at 50 µM,Rac1; [5],34.2%
same,inhibitory action on Rac1 activity,Rac1,significant end efficient inhibitory action
same,toxic classification,HepG2 cells,low toxic (low toxic (100 µM < EC50 ≤ 500 µM))
same,MVC,HepG2 cells,62.5 µM
same,Cytotoxicity-Classification,HepG2 cells,"+ (100 µM < EC50 ≤ 500, low (+))"
same,EC50,HepG2 cells; [7],162 µM
same,MVC,HL-1,15.6 µM
same,Cytotoxicity-Classification,HL-1,"++ (10 µM < EC50 ≤ 100 µM, medium (++))"
same,EC50,HL-1,68 µM
same,MVC,[1],31.2 µM
same,Cytotoxicity-Classification,[1],"++ (10 µM < EC50 ≤ 100 µM, medium (++))"
same,EC50,[1],85 µM
same,PAMPA classification,[2],high (high (flux >70%))
same,PAMPA flux [%] ± SD,[2],85±11%
same,"Papp at 90 min, 50 µM",[3],20.5 ± 1.9 ×10⁻⁶ cm/s
same,Caco2 Classification,Caco2,high (compounds with a Papp >10 are predicted to be well absorbed (70 - 100%))
"CCN(CC)CCCC(C)Nc1nc(C)cc(Nc2ccc3nc(C)cc(N)c3c2)n1 (racemic) [NSC23766, reference compound]",Relative rate of apoptosis normalised to control [%],HL-1 cells,546.5%
same,toxic classification,HepG2 cells,not toxic (not toxic (EC50 > 500 µM))
same,MVC,HepG2 cells,31.2 µM
same,Cytotoxicity-Classification,HepG2 cells,"no (EC50 > 500 µM, (no))"
same,EC50,HepG2 cells,> 500 µM
same,PAMPA classification,[2],low (low (flux <20%))
same,PAMPA flux [%] ± SD,[2],11±4%
same,"Papp at 90 min, 50 µM",[3],2.4 ± 4.2 ×10⁻⁶ cm/s
same,Caco2 Classification,Caco2,medium (compounds with Papp between 1 and 10 are moderately absorbed (20 - 70%))
"c1cc(NCc2ccc3[nH]ccc3c2)nc(NCc2ccc3[nH]ccc3c2)n1 [CWB020/01041, N2,N4-Bis-(1H-indol-5-ylmethyl)-pyrimidine-2,4-diamine]",remaining activity at 50 µM,Rac1; [5],17.1%
same,inhibitory action on Rac1 activity,Rac1,significant end efficient inhibitory action
same,MVC,HepG2 cells,7.8 µM
same,Cytotoxicity-Classification,HepG2 cells,"++ (10 µM < EC50 ≤ 100 µM, medium (++))"
same,EC50,HepG2 cells; [7],64 µM
same,MVC,HL-1,15.6 µM
same,Cytotoxicity-Classification,HL-1,"++ (10 µM < EC50 ≤ 100 µM, medium (++))"
same,EC50,HL-1,39 µM
same,MVC,[1],3.9 µM
same,Cytotoxicity-Classification,[1],"++ (10 µM < EC50 ≤ 100 µM, medium (++))"
same,EC50,[1],17 µM
same,PAMPA classification,[2],high (high (flux >70%))
same,PAMPA flux [%] ± SD,[2],54±4%
same,"Papp at 90 min, 50 µM",[3],65.9 ± 3.1 ×10⁻⁶ cm/s
same,Caco2 Classification,Caco2,high (compounds with a Papp >10 are predicted to be well absorbed (70 - 100%))
same,"remaining LC/MS peak area (relative to 0 min incubation samples, %)",[4],33-41%
CCN(CC)CCCC(C)Nc1nccc(Oc2ccc3ccccc3c2)n1 (stereo not drawn) [CWB019/01037],Remaining Rac1-GTP (% of control),Rac1; [5],101.3%
"CCN(CC)CCCC(C)Nc1nc(C)cc(NCC(=O)O)n1 (stereo not drawn) [CWB015/01031, [2-(4-Diethylamino-1-methyl-butylamino)-6-methyl-pyrimidin-4-ylamino]-acetic acid]",remaining activity at 50 µM,Rac1; [5],83.9%
"CCN(CC)CCCC(C)Nc1nc(C)cc(NCCc2c[nH]c3ccc(O)cc23)n1 (stereo not drawn) [CWB025/02056, 3-{2-[2-(4-Diethylamino-1-methyl-butylamino)-6-methyl-pyrimidin-4-ylamino]-ethyl}-1H-indol-5-ol]",remaining activity at 100 µM,Rac1; [6],123%
"CCN(CC)CCCC(C)Nc1nc(C)cc(N2CCCCC2)n1 (stereo not drawn) [CWB008/02044, N1,N1-Diethyl-N4-(4-methyl-6-piperidin-1-yl-pyrimidin-2-yl)-pentane-1,4-diamine]",remaining activity at 50 µM,Rac1; [5],95.8%
"CCN(CC)CCCCNc1nc(C)cc(NCCc2c[nH]c3ccc(O)cc23)n1 [CWB026/02057, 3-{2-[2-(4-Diethylamino-butylamino)-6-methyl-pyrimidin-4-ylamino]-ethyl}-1H-indol-5-ol]",remaining activity at 100 µM,Rac1; [6],108%
"CCN(CC)CCCC(C)Nc1nc(C)cc(N2CCOCC2)n1 (stereo not drawn) [CWB007/02040, N1,N1-Diethyl-N4-(4-methyl-6-morpholin-4-yl-pyrimidin-2-yl)-pentane-1,4-diamine]",remaining activity at 50 µM,Rac1; [5],101%
"CCN(CC)CCCC(C)Nc1cc(C)nc(NCCc2c[nH]c3ccc(O)cc23)n1 (stereo not drawn) [CWB027/02058, 3-{2-[4-(4-diethylamino-1-methyl-butylamino)-6-methyl-pyrimidin-2-ylamino]-ethyl}-1H-indol-5-ol]",remaining activity at 100 µM,Rac1; [6],111%
"CCN(CC)CCCC(C)Nc1nc(C)cc(NCCc2c[nH]c3ccccc23)n1 (stereo not drawn) [CWB002/02038, N2-(4-Diethylamino-1-methyl-butyl)-N4-[2-(1H-indol-3-yl)-ethyl)-6-methylpyrimidine-2,4-diamine]",remaining activity at 50 µM,Rac1; [5],109%
"CCN(CC)CCCC(C)Nc1nc(C)cc(Oc2ccc3nc(C)ccc3c2)n1 (stereo not drawn) [CWB001/01018, N1,N1-Diethyl-N4-[4-methyl-6-(2-methyl-quinolin-6-yloxy)-pyrimidin-2-yl]-pentane-1,4-diamine]",remaining activity at 50 µM,Rac1; [5],102%
